Tests used:
A-375 cells [1] = experiment: Real-time cell analysis of cell number and proliferation, xCELLigence system (Examples 8 and 11); format: cell-based, human
[2] = test system: human melanoma cell line A-375; experiment: Cell viability test, WST-1 assay (Examples 7 and 10); format: cell-based; conditions: A-375, 24 hours; for Cell viability (WST-1 assay): 10-3000 μg/ml delphinidin-SBE-β-CD or 15-120 μM delphinidin Cl, low and higher cell confluence (FIGS. 3a, 3b)
[3] = test system: human melanoma cell line A-375; experiment: Induction of apoptosis, sub-G1 peak method (Examples 6 and 9); format: cell-based; conditions: A-375, 24 hours; for Induction of apoptosis (sub-G1 peak): 10-3000 μg/ml delphinidin-SBE-β-CD or 15-120 μM delphinidin Cl, low and higher cell confluence (FIGS. 2a, 2b)
[4] = Solubility of delphinidin chloride in aqueous cyclodextrin solutions (Example 1); format: physicochemical; conditions: pure water, cyclodextrin concentration 0; stirred 30° C. 20 h in the dark, filtered 0.22 μm
[5] = test system: human dermal microvascular endothelial cells; experiment: Cell vitality, ATP luminescence assay, endothelial cells (Example 12); format: cell-based; conditions: 0.1-100 μM (0.1; 3.2; 100 μM); Day 1-Day 4 (FIG. 18)
Text: The human dermal microvascular endothelial cells were obtained by the standard method known to those skilled in the art of Hewett and Murray (1993) [Hewett P. W. and Murray J. C. (1993) Immunomagnetic purification of human microvessel endothelial cells using Dynabeads coated monoclonal antibodies to PECAM-1. Eur J Cell Biol 62: 451-454; Hewett P. W. & Murray J. C. (1993) Human microvessel endothelial cells: Isolation, culture and characterization. In Vitro Cell Biol: 823-830].

[6] = Stability trials in aqueous solution, 0.9% NaCl, 37° C. (Example 5); format: physicochemical; conditions: 0.9% NaCl solution, dark
Method: To determine the delphinidin chloride content in the delphinidin-containing solutions, a reversed-phase HPLC method was used similar to the one already described above. The following reagents were used in this case: […] The solutions were prepared at room temperature and subsequently stored in the dark at 37° C. in closed vials. […] The table below gives the content determined as a percentage of the starting concentration stated above.

A-375 cells [7] = experiment: Microscopic analysis of cell morphology after 24 hours of treatment; conditions: A-375, 24 hours of treatment, high concentrations (FIG. 4)

Row | Compound | Intensification of TRAIL sensitivity (real-time cell monitoring) (A-375 cells [1]; A-375, high cell confluence, SBE-β-CD 30 or 1000 μg/ml with TRAIL 0.02 μg/ml (FIGS. 16 and 17)) | Cell viability (WST-1 assay) [2] | Cell vitality, Example 10 ([2]; complex partner as control (FIG. 12b)) | Induction of apoptosis (sub-G1 peak) [3] | Induction of apoptosis (sub-G1 peak), Example 9 ([3]; complex partner as control (FIG. 11b)) | Concentration at which similarly strong antiproliferative effects are seen (A-375 cells [1]; A-375, high and low cell confluence (FIGS. 7 and 8)) | Delphinidin chloride, solubility achievable [4] | Cytotoxic effects on endothelial cells (vitality) [5] | Delphinidin content as a percentage of the starting concentration ([6]; 0 h, start 1.584 mg/ml (complex) or 0.0216 mg/ml (delphinidin)) | Delphinidin content as a percentage of the starting concentration ([6]; 1 h) | Delphinidin content as a percentage of the starting concentration ([6]; 2 h) | Delphinidin content as a percentage of the starting concentration ([6]; 3 h) | Delphinidin content as a percentage of the starting concentration ([6]; 4 h) | Morphology of the cells under microscopic analysis (A-375 cells [7])
1 | sulfobutyl ether β-cyclodextrin [SBE-β-CD] | No intensification of TRAIL sensitivity | no effect | at control level | no effect | at control level |  |  |  |  |  |  |  |  | 
2 | Oc1cc(O)c2cc(O)c(-c3cc(O)c(O)c(O)c3)[o+]c2c1.[Cl-] [delphinidin Cl, delphinidin chloride] |  | loss of vital cells with increasing dose |  | significant dose-dependent induction of apoptosis |  | 60 to 120 µM | 0.07 mg/mL | no significant cytotoxic effects | 100% | 8.3% | 6.5% | 5.6% | 5.1% | become globular and/or detached

From patent US9511047B2, “Delphinidin for combating melanoma cells” (priority 2012, dated 2016)
